Experimental data taken from US20240109925A1, “Enhanced Anti-Proliferative and Antitumor Immune Effects of Mitochondria-Targeted Hydroxyurea” (The Medical College of Wisconsin, Inc., priority 2021, published 2024).
“Also recorded” adds a separate entry of the source. Like-named read-outs stand apart in the source and are kept apart here.

Tests used:
Format in all cases: cell-based
[1] = tested on: HCT116 human colon cancer cells; experiment: Cell proliferation (cell confluence), IncuCyte Live-Cell Analysis system; settings: for IC50: Homo sapiens, HCT-116, at ~90% confluence of control; for IC50 / inhibition of proliferation of HCT116 cells: HCT116; for Cell Confluence (%): when control cells reached ~90% confluence, n = 4
Description: FIG. 1. Effects of HU and Mito-HUs on proliferation of HCT116 human colon cancer cells (A) Effects of HU and Mito-HUs on the proliferation of HCT116 cells were monitored in the IncuCyte Live-Cell Analysis system. The IncuCyte Analyzer provides real-time updates on cell confluence, based on segmentation of high definition-phase contrast images. Representative cell images were shown as segmentation mask illustrated in brown when control cells reached 90% confluence (vertical solid black line). (B) The IC50 values were determined at the point at which control cells reached ˜90% confluence (vertical solid black line). Relative cell confluence (control is taken as 100%) is plotted against concentration. Dashed lines represent the fitting curves used to determine the IC50 values as indicated. Data shown are the means & SD.
(§1) The following cell lines were obtained from the American Type Culture Collection (Manassas, VA), where they were regularly authenticated: HCT116 (ATCC Cat #CRL-247, human colon cancer cells) and MiaPaCa-2 (ATCC Cat #CRL-1420, human pancreatic cancer cells). All cells were cultured in a humidified incubator at 37° C. and 5% carbon dioxide. HCT116 cells were maintained in RPMI 1640 medium (Thermo Fisher Scientific, Cat #11875), supplemented with 10% fetal bovine serum. MiaPaCa-2 cells were maintained in Dulbecco's Modified Eagle Medium (Thermo Fisher Scientific, Waltham, MA; Cat #11965) supplemented with 10% fetal bovine serum. All cells were stored in liquid nitrogen and used within 20 passages after thawing.
(§2) The IncuCyte Live-Cell Analysis system (Essen Bioscience Inc., Ann Arbor, MI) was used to monitor cell proliferation (Cheng et al., 2013, 2016; Boyle et al., 2018). As shown in previous publications (Cheng et al., 2013, 2016), this imaging system is probe-free and noninvasive, and enables continuous monitoring of cell confluence over several days. The increase in the percentage of cell confluence was used as a surrogate marker of cell proliferation. In a 96-well plate, cells were plated at 1,000 cells per well in triplicates and left to adhere overnight. Cells were then treated with HU and Mito-HUs, and the cell confluency was recorded over several days in the IncuCyte Live-Cell Analysis system.

[2] = tested on: HCT116 human colon cancer cells; experiment: as above
[3] = tested on: MiaPaCa-2 human pancreatic cancer cells; experiment: Cell proliferation, IncuCyte Live-Cell Analysis system
Description: FIG. 7. Effects of HU and Mito10-HU on proliferation of MiaPaCa-2 human pancreatic cancer cells; MiaPaCa-2 cells treated with HU or Mito10-HU were monitored in the IncuCyte Live-Cell Analysis system. Cell proliferation was monitored in real-time with the continuous presence of indicated treatments until the end of each experiment. Data shown are the means±SD.
as §1, §2

mitochondrial complex I = mitochondrial complex I (Homo sapiens, UniProt O75251+O75306+P03886); experiment: Complex I-dependent oxygen consumption (OCR), Seahorse XF-96, HCT116 cells; settings: HCT116, 24 hr
Description: (§3) FIG. 2. Effects of HU and Mito-HUs on the oxygen consumption by mitochondrial complexes I and III (A) Dose-dependent effects of HU, Mito10-HU, Mito12-HU, Mito14-HU, Mito16-HU, and Mito20-HU on complex I- and complex III-dependent oxygen consumption were measured in HCT116 cells. HCT116 cells were treated with HU or Mito-HUs as indicated for 24 hr. Mitochondrial complex I activity (left) and complex III activity (right) were monitored by a Seahorse XF-96 analyzer. Either rotenone (complex I inhibitor) or antimycin A (complex III inhibitor) was acutely added and OCR assayed immediately. (B) The mitochondrial complex I (left) and III (right) dependent oxygen consumption (calculated as rotenone or antimycin A inhibitable OCR) are plotted against concentration of HU and Mito-HUs. Dashed lines represent the fitting curves used for determination of the IC50 values. Data shown are the means G SD.
(§4) Mitochondrial oxygen consumption was measured using the Seahorse XF-96 Extracellular Flux Analyzer (Agilent, North Billerica, MA) (Cheng et al., 2013, 2016; Boyle et al., 2018; Weinberg and Chandel, 2015). After cells were treated with HU or Mito-HUs for 24 hr, the OCR-based assessment of mitochondrial complex activities was carried out on acutely permeabilized cells in the presence of different mitochondrial substrates, i.e., pyruvate/malate for complex I and duroquinol for complex III (Cheng et al., 2016, 2019; Salabei et al., 2014; Wheaton et al., 2014). Rotenone, malonate, and antimycin A (Sigma-Aldrich, St. Louis, MO) were used as specific inhibitors of mitochondrial complexes I, II, and III, respectively. Briefly, cells that were intact after treatments were immediately permeabilized using the Seahorse XF Plasma Membrane Permeabilizer (Agilent). The mitochondrial complex I-induced OCR was assayed in mannitol and sucrose buffer (Salabei et al., 2014) containing 10 mM pyruvate and 1.5 mM malate (substrates for complex I) and 10 mM malonate (which inhibits complex II activities). The mitochondrial complex III-driven OCR was assayed in a mannitol and sucrose buffer containing 0.5 mM duroquinol (substrate for complex III) as well as […] and 10 mM malonate (which inhibit both complex I and II activities). The IC50 values were determined as previously reported (Cheng et al., 2019).

[4] = target: T1, mitochondrial complex III (Homo sapiens, UniProt P00156+P47985); experiment: Complex III-dependent oxygen consumption (OCR), Seahorse XF-96, HCT116 cells; settings: HCT116, 24 hr
T1 construct: other: mean ± SD; HCT116, 24 hr treatment; Complex III activity (OCR, % of control); other: 0.1 μM, 24 hr, HCT116; n = 4; other: 0.5 μM, 24 hr, HCT116; other: 0.75 μM, 24 hr, HCT116; other: 1 μM, 24 hr, HCT116; Compl
Description: as §3, §4

[5] = read-out: IC50 proliferation of HCT116 cells

## CCCCCCCCCCONC(N)=O [Decyl-HU, decyloxyurea, reference compound]
[1]; [5]
  IC50: > 600 µM

## Cc1[nH]nc(C(F)(F)F)c1Cc1sc2c(c1C(=O)N1C[C@](C)(O)CO1)c(=O)n(C)c(=O)n2C(C)C [AZD-3965, reference compound]
[2]; Mito10-HU (5 μM) or AZD-3965 (100 μM) independently, HCT-116
  antiproliferative effect, each alone (AZD-3965 experiment): negligible antiproliferative effects

## CCOC(=O)Oc1c(OC)cc(C(=O)O[C@@H]2C[C@@H]3CN4CCc5c([nH]c6cc(OC)ccc56)[C@H]4C[C@@H]3[C@H](C(=O)OC)[C@H]2OC)cc1OC [syrosingopine, reference compound]
[2]; Mito10-HU (5 μM) or syrosingopine (7.5 μM) independently, HCT116
  effect on cell proliferation, each alone (syrosingopine experiment): minimally affected cell proliferation

## O=C(NO)NC(=O)NCCCCCCCCCC[P+](c1ccccc1)(c1ccccc1)c1ccccc1.O=C([O-])C(F)(F)F [Mito10-HUNHTPP^+, 10-[(hydroxycarbamoyl)carbamoylamino]-decyltriphenylphosphonium trifluoroacetate]
[1]
  inhibition of proliferation of HCT116 cells: inhibited HCT116 cell proliferation

## NC(=O)NOCCCC[P+](c1ccccc1)(c1ccccc1)c1ccccc1.O=C([O-])C(F)(F)F [Mito4-HU, 4-[(carbamoylamino)oxy]-butyltriphenylphosphonium trifluoroacetate]
[1]; 100 μM
  Cell Confluence (%): 92.40%
[1]; 200 μM
  Cell Confluence (%): 90.77%
[1]; 400 μM
  Cell Confluence (%): 80.77%
[1]; 600 μM
  Cell Confluence (%): 47.24%
[1]; trifluoroacetate
  inhibition of proliferation of HCT116 cells: dose-dependently inhibited proliferation; also recorded: lower than that of HU
[1]; [5]
  IC50: > 600 µM
[1]; mean ± SD, read-out: IC50 Cell Proliferation (FIG. 1)
  IC50: > 600 µM
[3]
  inhibition of proliferation of MiaPaCa-2 cells: did not inhibit the proliferation

## Cc1ccc([P+](CCCCCCCCCCONC(N)=O)(c2ccc(C)cc2)c2ccc(C)cc2)cc1.O=C([O-])C(F)(F)F [Mito10-HUtriMe, 10-[(carbamoylamino)oxy]-decyl-tris-p-tolylphosphonium trifluoroacetate]
[1]; [5]
  IC50: 3.7 µM
Mitochondrial complex I
  effect on complex I-induced oxygen consumption: more potently than Mito10-HU
[4]
  effect on complex III-induced oxygen consumption: more potently than Mito10-HU
